The source of these data is patent US10052330B2, “Substituted pyrido[3,4-b]pyrazines as Syk inhibitors” (HUTCHISON MEDIPHARMA LIMITED, priority 2011, dated 2018).

Read-outs that look alike come from different tables or passages of the source.

Experiment [1] deals with RBL-2H3 cells. The experiment is described as follows: IgE-induced Beta-hexosaminidase secretion in RBL-2H3 cells. In kind it is cell-based. As to conditions: Rattus norvegicus.
For experiment [2], the target named is Syk kinase (Homo sapiens, UniProt P43405). Put plainly: Syk kinase enzymatic assay (Kit-Tyr 2 Peptide). It is filed as biochemical. As to conditions: 8 concentrations, 1 μM down to 0.0003 μM; upper bound of each range is 'less than'; read-out: IC50: Enzymatic Activity (Syk kinase).
The mark [3] stands for this setting: RBL-2H3, RBL-2H3 cells sensitized with SPE-7, stimulated with DNP-BSA, upper bound of each range is 'less than', read-out: IC50, IgE-induced Beta-hexosaminidase secretion.

The term IC50 denotes the concentration that gives 50% inhibition. Take `NC1CCN(c2nc(-c3ccc(N4CCOCC4)cc3)cc3nccnc23)C1` (stereo not shown) [Compound 28]: the IC50 in experiment [1] (setting [3]) and in experiment [2] was 100 to 1000 nM throughout.
As to `C[C@@H]1CN(c2ccc(-c3cc4nccnc4c(NC[C@@H]4CNCCO4)n3)cc2F)C[C@H](C)O1` [Compound 247], the results for the IC50 in experiment [1] (setting [3]) and in experiment [2] were 1 to 100 nM and 100 to 1000 nM, respectively.
The like results for `O=C(C(F)F)N1CCO[C@H](CNc2nc(-c3ccc(C4CCNCC4)cc3)cc3nccnc23)C1` [Compound 458] were, in that order, 100 to 1000 nM and 1 to 100 nM.
As to `Cn1cc(-c2cc3nccnc3c(NCC3CCCNC3)n2)cn1` (stereo not shown) [Compound 18], the IC50 lay within 100 to 1000 nM in experiment [1] (RBL-2H3, read-out: IC50, IgE-induced Beta-hexosaminidase secretion) and 100 to 1000 nM in experiment [2].
`O=C1CCCN1c1ccc(-c2cc3nccnc3c(NC[C@@H]3CNCCO3)n2)cc1` [Compound 124]: the IC50 in experiment [1] (setting [3]) and in experiment [2] was 100 to 1000 nM each time.
For `CNC(=O)COc1ccc(-c2cc3nccnc3c(NC[C@H]3CNCCC3(F)F)n2)cc1` [Compound 389, (R)-2-(4-(5-((4,4-difluoropiperidin-3-yl)methylamino)pyrido[4,3-b]pyrazin-7-yl)phenoxy)-N-methylacetamide], the IC50 in experiment [1] (setting [3]) and in experiment [2] was 1 to 100 nM in each case.
Take `CCCC(=O)N1CCN(c2ccc(-c3cc4nccnc4c(NC[C@@H]4CNCCO4)n3)cc2)CC1` [Compound 426]: the IC50 in experiment [1] (setting [3]) and in experiment [2] was 1 to 100 nM in each case.
With `Cc1cc(-c2cc3nccnc3c(NC[C@H]3CNCCO3)n2)ccc1N1CCOCC1` [Compound 115], the IC50 in experiment [1] (setting [3]) fell in the range of 1 to 100 nM; in experiment [2] it was 100 to 1000 nM.
With `CC(C)Oc1ccc(-c2cc3nccnc3c(NCC3CCCNC3)n2)cc1F` (stereo not shown) [Compound 52], the figures for the IC50 in experiment [1] (setting [3]) and in experiment [2] were 100 to 1000 nM and 1 to 100 nM, respectively.
On to `CC(=O)N1CCC(c2ccc(-c3cc4nccnc4c(NC[C@@H]4CNCCO4)n3)cc2)CC1` [Compound 418], for which the IC50 in experiment [1] (setting [3]) and in experiment [2] was 1 to 100 nM in each case.
With `CNC(=O)COc1ccc(-c2cc3nccnc3c(NCC3CNCCC3(F)F)n2)cc1` (stereo not shown) [Compound 306], the IC50 in experiment [1] (setting [3]) and in experiment [2] was 1 to 100 nM each time.
Regarding `CC(=O)N1CCN(c2ccc(-c3cc4nccnc4c(NC[C@@H]4CNCCC4(F)F)n3)cc2)CC1` [Compound 384, (S)-1-(4-(4-(5-((4,4-difluoropiperidin-3-yl)methylamino)pyrido[4,3-b]pyrazin-7-yl)phenyl)piperazin-1-yl)ethanone], the IC50 in experiment [1] (setting [3]) and in experiment [2] was 1 to 100 nM each time.
For the molecule `c1cnc2c(NC[C@@H]3CNCCO3)nc(-c3ccc(N4CCCOCC4)nc3)cc2n1` [Compound 269], the IC50 in experiment [1] (setting [3]) and in experiment [2] was 1 to 100 nM in each case.
With `Cn1ccc2cc(-c3cc4nccnc4c(NC[C@@H]4CNCCO4)n3)ccc21` [Compound 235], the IC50 in experiment [1] (setting [3]) and in experiment [2] was 1 to 100 nM each time.
`NCC1CCN(c2nc(-c3ccc(N4CCOCC4)cc3)cc3nccnc23)CC1` [Compound 108]: the IC50 in experiment [1] (setting [3]) and in experiment [2] was 100 to 1000 nM throughout.
Take `CN(C)c1ccc(-c2cc3nccnc3c(NC[C@@H]3CNCCO3)n2)cn1` [Compound 102]: the IC50 in experiment [1] (setting [3]) and in experiment [2] was 1 to 100 nM each time.
For `CN(C)c1ccc(-c2cc3nccnc3c(NC[C@H]3CCCNC3)n2)cc1` [Compound 21], the IC50 in experiment [1] (setting [3]) and in experiment [2] was 1 to 100 nM throughout.
Consider `Cc1ccc(-c2cc3nccnc3c(NCC3CCCNC3)n2)cc1` (stereo not shown) [Compound 22], for which the IC50 in experiment [1] (setting [3]) and in experiment [2] was 1 to 100 nM throughout.
For the molecule `NCCCNc1nc(-c2ccc(N3CCOCC3)nc2)cc2nccnc12` [Compound 194], the IC50 in experiment [1] (setting [3]) and in experiment [2] was 100 to 1000 nM throughout.
`O=C(C(F)F)N1CCO[C@H](CNc2nc(-c3ccc(N4CCN(CCCO)CC4)cc3)cc3nccnc23)C1` [Compound 490]: the IC50 in experiment [1] (setting [3]) and in experiment [2] was 1 to 100 nM in each case.
For `CN(C)S(=O)(=O)N1CCC(c2ccc(-c3cc4nccnc4c(NC[C@@H]4CNCCO4)n3)cc2)CC1` [Compound 499], the IC50 in experiment [1] (setting [3]) and in experiment [2] was 1 to 100 nM in each case.
As for `CC(C)(F)C(=O)N1CCN(c2ccc(-c3cc4nccnc4c(NC[C@@H]4CNCCO4)n3)cc2)CC1` [Compound 437], the IC50 in experiment [1] (setting [3]) and in experiment [2] was 1 to 100 nM throughout.
With `CN1CCN(c2ccc(-c3cc4nccnc4c(NCC4CNCCS4)n3)cc2)CC1` (stereo not shown) [Compound 241], the 50% inhibitory concentration (IC50) in experiment [1] (setting [3]) fell in the range of 100 to 1000 nM; in experiment [2] it was 1 to 100 nM.
As for `CCc1ccc(-c2cc3nccnc3c(NCC3CCCNC3)n2)cc1` (stereo not shown) [Compound 45], the IC50 in experiment [1] (setting [3]) and in experiment [2] was 100 to 1000 nM throughout.
With `CCN1CCN(c2ccc(-c3cc4nccnc4c(NC[C@@H]4CN(S(C)(=O)=O)CCO4)n3)cc2)CC1` [Compound 487], the IC50 in experiment [1] (setting [3]) was in the range of 100 to 1000 nM; in experiment [2], 1 to 100 nM.
For `Cc1ccc(-c2cc3nccnc3c(NC[C@H]3CCCNC3)n2)cc1F` [Compound 41], the IC50 was 100 to 1000 nM in experiment [1] (setting [3]) and 1 to 100 nM in experiment [2].
The like results for `CNc1ccc(-c2cc3nccnc3c(NCC3CNCCC3(F)F)n2)cn1` (stereo not shown) [Compound 302] were, in that order, 1 to 100 nM and 1 to 100 nM.
Consider `Fc1cc(-c2cc3nccnc3c(NCC3CNCCC3(F)F)n2)ccc1N1CCOCC1` (stereo not shown) [Compound 294], for which the IC50 in experiment [1] (setting [3]) and in experiment [2] was 1 to 100 nM in each case.
Take `CN(c1ccc(-c2cc3nccnc3c(NCC3CNCCC3(F)F)n2)cc1)S(C)(=O)=O` (stereo not shown) [Compound 313]: the IC50 in experiment [1] (setting [3]) and in experiment [2] was 1 to 100 nM each time.
In the case of `O=C(CO)N1CCN(c2ccc(-c3cc4nccnc4c(NC[C@@H]4CNCCO4)n3)cc2)CC1` [Compound 272], the IC50 in experiment [1] (setting [3]) and in experiment [2] was 1 to 100 nM each time.
With `CC(=O)N1CCN(c2ccc(-c3cc4nccnc4c(NC[C@H]4CN(C(=O)C(F)F)CCO4)n3)cc2)CC1` [Compound 466, (S)-1-(2-((7-(4-phenylpiperazin-1-yl)ethanone[4,3-b]pyrazin-5-ylamino)methyl)morpholino)-2,2-difluoroethanone], the IC50 lay within 1 to 100 nM in experiment [1] (RBL-2H3 cells sensitized with SPE-7, stimulated with DNP-BSA, upper bound of each range is 'less than', read-out: IC50, IgE-induced Beta-hexosaminidase secretion) and 1 to 100 nM in experiment [2].
On to `CS(=O)(=O)N1CCN(c2ccc(-c3cc4nccnc4c(NCC4CNCCC4(F)F)n3)cc2)CC1` (stereo not shown) [Compound 444], for which the IC50 in experiment [1] (setting [3]) and in experiment [2] was 1 to 100 nM each time.
As for `CN(C)c1ccc(-c2cc3nccnc3c(N3CC[C@@H](CO)C3)n2)cc1` [Compound 165], the results for the IC50 in experiment [1] (setting [3]) and in experiment [2] were 1 to 100 nM and 100 to 1000 nM, respectively.
Consider `O=C(CC1CC1)N1CCN(c2ccc(-c3cc4nccnc4c(NC[C@@H]4CNCCO4)n3)cc2)CC1` [Compound 403], for which the IC50 in experiment [1] (setting [3]) lay in the range of 100 to 1000 nM; in experiment [2] it was 1 to 100 nM.
Consider `CCC(=O)N1CCN(c2ccc(-c3cc4nccnc4c(NC[C@@H]4CNCCO4)n3)cc2F)CC1` [Compound 429], for which the IC50 in experiment [1] (setting [3]) and in experiment [2] was 1 to 100 nM in each case.
For the molecule `FC(F)Oc1ccc(-c2cc3nccnc3c(NC[C@H]3CCCNC3)n2)cc1` [Compound 139], the IC50 in experiment [1] (setting [3]) and in experiment [2] was 1 to 100 nM in each case.
Turning to `CN(C)c1ccc(-c2cc3nccnc3c(NCC3CNCCC3(F)F)n2)cc1F` (stereo not shown) [Compound 301], the IC50 in experiment [1] (setting [3]) and in experiment [2] was 1 to 100 nM each time.
With `c1cnc2c(NC[C@@H]3CNCCO3)nc(-c3ccc(N4CCCC4)cc3)cc2n1` [Compound 114], the IC50 in experiment [1] (setting [3]) and in experiment [2] was 1 to 100 nM in each case.
